The results in this text go back to patent US20070081978A1, “Adeno-associated virus-mediated survivin mutants and methods related thereto” (priority 2005, published 2007).

The test system of data set [1] is SW1116 cells. The data set can be described thus: Intratumoral rAAV gene therapy in colon cancer xenograft model: tumor growth. The format is in vivo, BALB/c nude mice. The conditions noted are these: rAAV 5×10^10 particles/site, 3 sites; 5-FU i.p. 50 mg/kg on each of 5 days. The method, then:
rAAV-Sur-Mut(Cys84Ala) inhibited tumor growth. (A) Untreated SW1116 cell were subcutaneously injected into the right flank of athymic female nude mice. Tumors were allowed to grow to approximately 100-150 mm^3 volume. Masses were injected in three sites with rAAV-Sur-Mut(Cys84Ala), rAAV-eGFP or rAAV-Sur(wt) at 5×10^10 viral particles/site of injection, or with PBS. Photographs were taken from representative mice 4 weeks after treatment. (B) Tumor growth was measured every week after injection. Data are the means±SEM of tumor size per mouse. (C) Tissue sections of formalin-fixed, paraffin-embedded xenograft tumors were stained by H&E, immunohistochemical stained for survivin or TUNEL stained for detection of apoptotic cells. Images were representative fields of view from tumors 5 days after treatment. (Original magnification ×200)
(§1) Five- to six-week-old female BALB/c nude mice were injected subcutaneously on the flanks with 2×10^6 exponentially growing SW1116 cells. Tumors were allowed to grow to 100˜150 mm^3 (5˜7 mm diameter). For local administration of rAAV, masses were injected in three sites with rAAV-Sur-Mut(Cys84Ala), rAAV-Sur(wt) or rAAV-EGFP at 5×10^10 viral particles/site of injection, or at each of the three site with PBS. Alternatively, mice were i.p. injected with 50 mg/kg 5-fluorouracil daily for 5 days, or a combination of rAAV virus and 5-Fluorouracil. Tumor growth was measured weekly after injection. In other experiments, mice received an injection of uninfected exponentially growing 2×10^6 SW1116 cells. After 7 days, mice were given an injection of same dosage of rAAV virus and 5-FU (3 animals/group). After 5 days, animals were euthanized, and their total tumor burden was excised, fixed and embedded in paraffin blocks for H&E, TUNEL and immunohistochemical staining, or tumors were snap-frozen in liquid nitrogen for CD31 staining.

Data set [2] relates to SW1116 cells. The data set can be described thus: Survival of xenograft-bearing mice. The format is in vivo, BALB/c nude mice. As to the method:
rAAV-Sur-Mut(Cys84Ala) prolonged the survival of mice. (A) Masses were injected in three sites with rAAV-Sur-Mut(Cys84Ala), rAAV-Sur(wt) and rAAV-eGFP at 5×10^10 viral particles/site of injection, or in combination with 5-Fluorouracil for 5 days. Tumor xenografts were collected and tissue sections of formalin-fixed, paraffin-embedded xenograft were TUNEL stained for apoptosis. (B) Survival curve. The experimental conditions were as in (A) Survival was monitored every day, and tumor volume was measured every week after treatment. Definition of death is natural death due to tumor burden or killing due to tumor sizes (diameter) more than 2.5 cm.
as §1, with “After 7 days, mice were given an injection of same dosage of rAAV virus and 5-FU (3 animals/group). After 5 days, animals were euthanized, and their total tumor burden was excised, fixed and embedded in paraffin blocks for H&E, TUNEL and immunohistochemical staining, or tumors were snap-frozen in liquid nitrogen for CD31 staining.” left out

Data set [3] concerns SW1116 cells. In words: Drug-induced apoptosis by FACS analysis (Table 1). The format is cell-based, Human. The settings on record: rAAV 1×10^5 viral particle/cell, or followed by 10 μg/ml 5-fluorouracil for 72 hour; mean ± SEM. As to the method: Cells were collected and fixed in ice-cold 70% ethanol in PBS and stored at −20° C. before use. After re-suspension, cells were washed and incubated with 100 μl of RNase I (1 mg/ml) and 100 μl of propidium iodide (400 μg/ml; Sigma) at 37° C. for 30 min. Samples were analyzed by flow cytometry (Coulter, Luton). The cell-cycle phase distribution was calculated from the resultant DNA histogram using Multicycle AV software (Phoenix Flow Systems, San Diego, Calif.). Cells with subdiploid DNA content were scored as apoptotic.

SMILES strings stand for the structures.

For the compound `O=c1[nH]cc(F)c(=O)[nH]1` [5-FU, 5-fluorouracil], in data set [1], the “Number of mice with tumor regression” value was 0/4, the Rate of inhibition is reported as 61.2% and the Tumor size worked out at 606.3 ± 106.7 mm^3. In data set [2] (mouse, in vivo), the “survival (comparison in words)” value was “survived significantly longer than buffer-treated mice”. Further, the clinical symptoms result in data set [2] (tumor-bearing mice) is recorded as “developed severe symptoms related to tumor growth”. Moreover, in data set [3], the “% Apoptosis” value is on record as 26.0 ± 3.4%.
